Data: patent US10905757B2, “Cross-reactive T cell epitopes of HIV, SIV, and FIV for vaccines in humans and cats” (priority 2012, dated 2021)
Entries after “also recorded” stand apart in the source; their conditions may differ. Marks after values point to notes of the source that are not given here. Ends that are not written are not given here.

Legend:
Assay type in all cases: cell-based, human
[1] = tested on: CD3+CD8+ T cells from HIV+ subjects; assay: CFSE-proliferation, CD3+CD8+ T cells from HIV+ subjects; conditions: for CD8^+ T Proliferation (positive/total): positive responses over total tested, F3 responders (H3 responders for H3-3)
Method: (§1) 2×10^5-5×10^5 CFSE labeled PBMCs were incubated with 15-20 μg of peptides in 600 μL of RPMI media with 10% FBS for 5 days at 37° C. (5% CO2). After harvesting, they were labeled with allophycocyanin (APC), APC-H7, and Pacific Blue labeled monoclonal antibodies (MAb) to human CD3, CD4, and CD8, respectively and analyzed for T-cell proliferation by flow cytometry using BD LSRII (BD Biosciences). The proliferating CD4^+ or CD8^+ T cell populations were defined from the CD3^+ cell population as either CD3^+CD8^+ or CD3^+CD4^+T cells (mutually exclusive) with low CFSE (CFSE^low) staining.
(§2) Flow cytometry (FACS) for carboxyfluoresein diacetate succinimide ester (CFSE)-proliferation and intracellular cytotoxin staining (ICS). The CFSE-proliferation analysis was performed on PBMC according to the manufacturer's protocol (Invitrogen, Carlsbad, Calif.) and processed as previously described (Lichterfeld et al. (2004)). Modifications consisted of using 2.0-5.0×10^5 CFSE-labeled cells stimulated for 5 days (37° C., 5% CO^2) with 30 μg/well of total peptides in a pool (15 μg/well for individual peptide, Table 10) or 5 μg/mL PHA in AIM V medium containing 25 μg/mL of gentamycin and 10% heat-inactivated human serum. Subsequently these cells were harvested and labeled with the LIVE/DEAD fixable yellow dye (Invitrogen) and then treated 5 min with anti-CD16/CD32 antibody (Biolegend, San Diego, Calif.) for blocking non-specific binding before phenotype-specific antibodies. The following antibodies were used for the CFSE-proliferation analysis: anti-CD4 APC, anti-CD3 APC-H7, and anti-CD8 Pacific Blue (BD Biosciences, San Jose, Calif.).
(§3) In both analyses, 1.0-2.0×10^4 cells were fixed in phosphate-buffered saline (PBS) containing 2% paraformaldehyde and analyzed on BD LSRII using […] Software (BD Biosciences), with a positive threshold of 3% CFSE^low for CFSE-proliferation and 1% T cells expressing cytotoxin for ICS. The final value for each subject was derived after subtraction of the subject's medium control and the average value of peptide-stimulated cells from uninfected control subjects.
(§4) Flow cytometry (FACS) for measuring CFSE-proliferation and intracellular cytokine staining (ICS). Carboxyfluorescein diacetate succinimide ester (CFSE)-proliferation analysis was performed according to the manufacturer's protocol (Invitrogen) and processed as previously described (Lichterfeld et al. 2004) using the following modification: 2.5-5.0×10^5 CFSE-labeled PBMC stimulated for 4-5 days (37° C., 5% CO2) with 15-30 μg of peptides in culture media (AIM V medium, 25 μg/mL gentamycin, and 10% heat-inactivated fetal bovine serum). The ICS analysis was performed as previously described (Horton et al. 2007; Pattacini et al. 2012).
(§5) The antibodies used for the proliferation analysis consisted of anti-CD4 allophycocyanin (APC) anti-CD3 APC-H7, and anti-CD8 Pacific Blue, and those for ICS were anti-CD3 APC-H7, anti-CD4 BD Horizon V450, anti-CD8 FITC, anti-granzyme B (GrzB) Alexa 700, anti-granzyme A (GrzA) PE (BD Biosciences, Cat #555349, 560176, 558207, 560345, 555366, 560213, 558904), and anti-perforin PerCP (Abcam, Cat #ab86319). Both analyses were performed with BD LSRII and […]™ Software (BD Biosciences), using a positive threshold of >1% CFSE^low for CFSE-proliferation except for ICS studies with threshold of >0.1% T cells expressing cytotoxin. The final value for each subject was derived after subtracting the result of each HIV^+ subject with the media control followed by subtraction with the average response of the media-control subtracted HIV^− subjects.

[2] = tested on: PBMC from HIV+ subjects; assay: IFNγ ELISpot, PBMC from HIV+ subjects; conditions: for IFNγ (positive/total): positive responses over total tested, F3 responders (H3 responders for H3-3)
Method: 1.0×10^5-2.0×10^5 PBMCs were stimulated with peptides (15 μg peptide/well) in ELISpot plates for 18 hours in AIMS V medium (at 10% normal human serum). The spots were counted with an ELISpot reader and adjusted to spot forming units (SFU) per 10^6 cells.
Positive reactivity was defined at ≥70 SFU/10^6 cells after subtracting the background derived from non-specific peptide control or media control, and the average of 3 HIV-1 negative controls (<30 SFU/10^6 cells).
ELISpot assays. Enzyme-linked immunosorbent spot assays (ELISpot) for IFNγ (R&D Systems, Minneapolis, Minn.) were performed with AIM V medium containing 5% heat-inactivated (56° C., 30 min) human serum as previously described (Abbott et al. (2012)). The PBMC from HIV+ subjects were stimulated with either peptide pool (4-5 consecutive peptides per pool at 5 μg per peptide) or individual peptide (15 μg/well). The peptides were 11-16 aa in length with 8-10 aa overlap. The results were analyzed with an ELISpot reader (MVS Pacific LLC, Minneapolis, Minn.) and adjusted to spot forming units (SFU) per 10^6 cells, after subtraction of the average medium control for each subject. The PBMC from HIV+ subjects were stimulated with T-cell mitogen, phytohemaglutinin A (PHA, 5 μg/mL), as positive control. At a positive threshold of 70 SFU, HIV− subjects had no substantial IFNγ responses (>50 SFU) to HIV and FIV peptide pools.
ELISpot assays. Human enzyme-linked immunosorbent spot assays (ELISpot) (R&D Systems, Cat #XEL285) which measure IFNγ production were performed (Abbott et al. 2011). The positive threshold for human IFNγ responses was >50 spot forming units (SFU)/10^6 cells. The final value for each subject was derived after subtracting the result of each HIV^+ subject with the media control followed by subtraction with the average response of the HIV^− subjects which was rarely more than 10 SFU.

[3] = tested on: CD4+ or CD8+ T cells from HIV+ subjects; assay: Intracellular cytotoxin staining (ICS), CD4+ or CD8+ T cells from HIV+ responders
Method: Briefly, 1×10^6PBMCs (freshly isolated) are stimulated with 20 μg of peptides for 6 hours in a total volume of 200 μL in a 96-well plate in presence of Golgi transport inhibitor (37° C., 5% CO2). […] Cells were stained with the LIVE/DEAD® fixable yellow dye (Invitrogen, Eugene, Oreg.). […] The flow cytometry data is collected using BD LSRII and analyzed with the FACS DIVA software.
The cells were subsequently fixed and permeabilized with Cytofix/Cytoperm solution (BD Biosciences) before reaction with anti-cytotoxin antibodies. The antibodies consisted of anti-CD3 APC-H7, anti-CD4 BD Horizon V450, and anti-CD8 FITC followed by anti-GrzB Alexa 700 and anti-GrzA PE (all from BD Biosciences), and anti-perforin PerCP (Abcam, Boston, Mass.).
as §3
Flow cytometry (FACS) for measuring CFSE-proliferation and intracellular cytokine staining (ICS).
Both analyses were performed with BD LSRII and […]™ Software (BD Biosciences), using a positive threshold of >1% CFSE^low for CFSE-proliferation except for ICS studies with threshold of >0.1% T cells expressing cytotoxin.

[4] = tested on: CD3+CD4+ T cells from HIV+ subjects; assay: CFSE-proliferation, CD3+CD4+ T cells from HIV+ subjects
Method: as §1, §2, §3, §4, §5

[5] = tested on: CD4+ T cells from HIV+ subjects; assay: Intracellular cytotoxin staining (ICS), CD4+ T cells from HIV+ subjects; parameters: key to CD4^+ T-cell cytotoxins (4C): positive (+); negative (−) response; inhibitory (↓); not done (n); conditions: HIV^+ subjects compared to HIV^− control group
Method: (§6) Briefly, 1×10^6PBMCs (freshly isolated) are stimulated with 20 μg of peptides for 6 hours in a total volume of 200 μL in a 96-well plate in presence of Golgi transport inhibitor (37° C., 5% CO2). The cells are processed as previously described (Horton et al. (2007)). Cells were stained with the LIVE/DEAD® fixable yellow dye (Invitrogen, Eugene, Oreg.). The monoclonal antibodies fluorochome-conjugated to human cytokines used are: APC-H7 to CD3 (clone SK7); BD Horizon V450 to CD4 (clone RPA-T4); Qdot to CD8 (clone 3B5); PE-cy7 to IFN-γ (clone 4S.B3); APC to IL-2 (clone MQ1-17H12) PerCP to perforin (clone B-D48); Alexa F1.700 to granzyme-B (clone GB11) and PE to granzyme-A (clone CB9). The flow cytometry data is collected using BD LSRII and analyzed with the FACS DIVA software.
(§7) The ICS analysis (Horton et al. (2007)) involved stimulating 0.5-1.0×10^6 freshly isolated PBMC for 6 h with the same peptide stimulant and culture conditions as the proliferation analysis in the presence of 1 μg/mL of Golgi transport inhibitor and monensin followed by labeling with LIVE/DEAD fixable yellow dye and then treatment with anti-CD16/CD32 antibody and T-cell phenotypic antibodies. The cells were subsequently fixed and permeabilized with Cytofix/Cytoperm solution (BD Biosciences) before reaction with anti-cytotoxin antibodies. The antibodies consisted of anti-CD3 APC-H7, anti-CD4 BD Horizon V450, and anti-CD8 FITC followed by anti-GrzB Alexa 700 and anti-GrzA PE (all from BD Biosciences), and anti-perforin PerCP (Abcam, Boston, Mass.).
as §3, §4, §5

[6] = tested on: CD8+ T cells from HIV+ subjects; assay: Intracellular cytotoxin staining (ICS: perforin, GrzA, GrzB, CD107a), CD8+ T cells from HIV+ subjects; parameters: key to CD8^+ T-cell cytotoxins (8C): positive (+); negative (−) response; inhibitory (↓); not done (n); conditions: for CD8^+ T-cell cytotoxins (8C): HIV^+ subjects compared to HIV^− control group
Method: as §6, §7, §3, §4, §5

[7] = responders to Fp9 or Fp14 peptide pools
[8] = average positive values, responders to Fp9 or Fp14 peptide pools
[9] = responders/tested, small 9-13mer peptides, yr 4, responders to Fp9 or Fp14 pool via both proliferation and IFNγ
[10] = small 9-13mer peptides, yr 4, responders to Fp9 or Fp14 pool via both proliferation and IFNγ

Which “CD8^+ T Proliferation (positive/total)” value [1] does the source give for FIV F3-3 (KV15) (KKKSGKWRMLIDFRV) here?
The value was 6/9.

What about the “IFNγ (positive/total)” value [2] of the same substance?
The value was 13/13.

KLYLKQSLSI [Fp14-3/4f] was tested. Which “cytotoxin and CD107a expression in CD4+ and CD8+ T cells (in words)” value ([3]; p24 peptides) did it give?
Its value is “high frequency of cytotoxin expression; also recorded: high cytotoxin and CD107a expression”.

And the Cytotoxins [3, 7]?
Its Cytotoxins is “High Cytotoxins (The cytotoxin result is considered high when four or five subjects express one or more cytotoxins in the CD8^+ T cells)”.

What about the “CD4+ T-cell proliferation response of HIV+ subjects (in words)” value [4] of the same substance?
Its value is “high”.

What about the “(magnitude) CD4 Proliferation” value [4, 8] of the same substance?
The value was “low (The average positive values are considered low when the frequency of response is <15% CFSE)”.

And the “Responder Frequency in %, CD4 Proliferation” value [4, 7]?
The value was 60%.

What about the “CD4^+ T-cell Responder Frequency” value [4, 9] of the same substance?
Its value is 6/10.

What about the “CD4^+ T-cell Responder Frequency (%)” value [4, 10] of the same substance?
Its value is “(60) ^d %”.

And the “(magnitude) CD8 Proliferation” value [1, 8]?
The value was “high (high when >30 CSFE)”.

And the “CD8+ T-cell proliferation response of HIV+ subjects (in words)” value ([1]; p24 pools and peptides)?
Its value is “high”.

And the “Responder Frequency in %, CD8 Proliferation” value [1, 7]?
The value was 100%.

What about the “CD8^+ T-cell Responder Frequency” value [1, 9] of the same substance?
Its value is 10/10.

And the “CD8^+ T-cell Responder Frequency (%)” value [1, 10]?
Its value is “(100) ^d %”.

What about the “(magnitude) IFNγ” value [2, 8] of the same substance?
Its value is “low (low when the frequency of response is <15% CFSE or <125 SFU)”.

What about the “IFNγ response of HIV+ subjects (in words)” value ([2]; p24 pools and peptides) of the same substance?
Its value is “low”.

And the “Responder Frequency in %, IFNγ” value [2, 7]?
The value was 40%.

KKKDSTKWRKLVDFR [H3-3] was tested. Which “IFNγ response of H3 responders retested” value ([2]; three H3 responders tested on or after the second year) did it give?
Its value is 0/3.

EQNTAEVKLYLKQSL [Fp14-2] was tested. Which “CD4^+ T-cell cytotoxins (4C)” value [5] did it give?
The value was “+”.

What about the “CD8^+ T-cell cytotoxins (8C)” value [6] of the same substance?
The value was “+”.

Which results are given for ASQEVKNWMTETLLV [Hp15-2]?
CD4^+ T-cell cytotoxins (4C) [5]: +; CD8^+ T-cell cytotoxins (8C) [6]: +

What does the source list for FIV F3-3m5 (KKKSGKWRKLIDFRV)?
CD8^+ T Proliferation (positive/total) [1]: 0/5; IFNγ (positive/total) [2]: 0/9

Which “CD8^+ T Proliferation (positive/total)” value [1] does the source give for FIV F3-3m3 (KKKSGKWRMLVDFRV) here?
The value was 0/5.

And the “IFNγ (positive/total)” value [2]?
Its value is 0/9.

What does the source list for CAEV & MVV (KKKSGKWRMLIDFRE)?
CD8^+ T Proliferation (positive/total) [1]: 0/5; IFNγ (positive/total) [2]: 1/9

Which “CD4^+ T-cell cytotoxins (4C)” value [5] does the source give for AEVKLYLKQSLSIA [Fp14-3] here?
The value was “+”.

And the “cytotoxin expression / CTL-associated activity in CD8+ T cells (in words)” value [6]?
Its value is “highest frequency and levels”.

What about the “CD8^+ T-cell cytotoxins (8C)” value [6] of the same substance?
Its value is “+”.

What about the “HIV+ subjects whose CD8+ T cells responded with one or more cytotoxins” value ([6]; five HIV+ subjects, individual 13-15mer peptides) of the same substance?
Its value is “five”.
